Test results as given in patent publication US20070232601A1, “Vla-4 Inhibitor” (priority 2004, published 2007).

Tests used:
[1] = target: T1, hα4 and β1 integrins (VLA-4) (Homo sapiens, UniProt P05556+P13612); test: In vitro evaluation: inhibition of binding of CHO cells expressing hα4 and β1 integrins to Eu3+-hVCAM-1 D1D7-IgG; settings: ligand Eu3+-hVCAM-1 D1D7-IgG 2 nM, Ki calculated from IC50
T1 construct: expressed in transfected cells; host or cells: CHO cells
How it was run: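 CHO cells stably expressing hα4β1 were cultured 2 days, then incubated 1 h at room temperature with Eu3+-hVCAM-1 D1D7-IgG (added as 2 nM solution) and compound in HEPES pH 7.5 with Ca2+, Mg2+ and 4 mM Mn2+, ± 6% human serum albumin. Bound europium was read by time-resolved fluorescence; IC50 was converted to Ki using Scatchard-derived Kd.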

[2] = Dispersibility test in Japanese Pharmacopoeia First and Second Solution; assay type: physicochemical; settings: for Dispersibility in Japanese Pharmacopoeia First Solution: JP1, pH 1.2; for Dispersibility in Japanese Pharmacopoeia Second Solution: JP2, pH 6.8
Procedure: Dispersibility of a test substance in Japanese Pharmacopoeia First Solution (JP1, pH 1.2) and Japanese Pharmacopoeia Second Solution (JP2, pH 6.8) was evaluated.

T1 sequence (P13612 34-1032): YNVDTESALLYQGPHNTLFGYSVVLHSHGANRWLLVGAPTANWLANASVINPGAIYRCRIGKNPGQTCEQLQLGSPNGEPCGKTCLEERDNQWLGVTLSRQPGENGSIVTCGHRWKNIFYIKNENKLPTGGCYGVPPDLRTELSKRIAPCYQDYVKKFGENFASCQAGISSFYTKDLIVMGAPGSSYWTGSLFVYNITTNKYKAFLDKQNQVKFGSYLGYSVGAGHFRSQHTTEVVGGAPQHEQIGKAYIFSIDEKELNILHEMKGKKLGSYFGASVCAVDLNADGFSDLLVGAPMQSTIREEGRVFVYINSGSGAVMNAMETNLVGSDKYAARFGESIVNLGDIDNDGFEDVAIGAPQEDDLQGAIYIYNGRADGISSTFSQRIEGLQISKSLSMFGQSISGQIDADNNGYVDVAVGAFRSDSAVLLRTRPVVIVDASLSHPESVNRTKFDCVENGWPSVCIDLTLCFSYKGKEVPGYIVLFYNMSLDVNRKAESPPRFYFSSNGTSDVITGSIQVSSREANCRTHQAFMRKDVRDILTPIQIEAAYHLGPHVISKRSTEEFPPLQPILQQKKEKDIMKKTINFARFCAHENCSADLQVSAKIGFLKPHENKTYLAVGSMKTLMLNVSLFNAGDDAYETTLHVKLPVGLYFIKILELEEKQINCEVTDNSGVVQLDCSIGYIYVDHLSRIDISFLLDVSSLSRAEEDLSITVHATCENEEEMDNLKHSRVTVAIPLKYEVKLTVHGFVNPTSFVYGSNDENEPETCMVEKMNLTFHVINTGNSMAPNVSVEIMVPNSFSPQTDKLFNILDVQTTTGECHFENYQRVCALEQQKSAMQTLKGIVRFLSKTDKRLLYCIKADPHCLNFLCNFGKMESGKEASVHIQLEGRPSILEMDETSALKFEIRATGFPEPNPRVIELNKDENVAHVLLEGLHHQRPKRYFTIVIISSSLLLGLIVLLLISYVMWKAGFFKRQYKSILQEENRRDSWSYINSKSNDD
T1 sequence (P05556 21-798): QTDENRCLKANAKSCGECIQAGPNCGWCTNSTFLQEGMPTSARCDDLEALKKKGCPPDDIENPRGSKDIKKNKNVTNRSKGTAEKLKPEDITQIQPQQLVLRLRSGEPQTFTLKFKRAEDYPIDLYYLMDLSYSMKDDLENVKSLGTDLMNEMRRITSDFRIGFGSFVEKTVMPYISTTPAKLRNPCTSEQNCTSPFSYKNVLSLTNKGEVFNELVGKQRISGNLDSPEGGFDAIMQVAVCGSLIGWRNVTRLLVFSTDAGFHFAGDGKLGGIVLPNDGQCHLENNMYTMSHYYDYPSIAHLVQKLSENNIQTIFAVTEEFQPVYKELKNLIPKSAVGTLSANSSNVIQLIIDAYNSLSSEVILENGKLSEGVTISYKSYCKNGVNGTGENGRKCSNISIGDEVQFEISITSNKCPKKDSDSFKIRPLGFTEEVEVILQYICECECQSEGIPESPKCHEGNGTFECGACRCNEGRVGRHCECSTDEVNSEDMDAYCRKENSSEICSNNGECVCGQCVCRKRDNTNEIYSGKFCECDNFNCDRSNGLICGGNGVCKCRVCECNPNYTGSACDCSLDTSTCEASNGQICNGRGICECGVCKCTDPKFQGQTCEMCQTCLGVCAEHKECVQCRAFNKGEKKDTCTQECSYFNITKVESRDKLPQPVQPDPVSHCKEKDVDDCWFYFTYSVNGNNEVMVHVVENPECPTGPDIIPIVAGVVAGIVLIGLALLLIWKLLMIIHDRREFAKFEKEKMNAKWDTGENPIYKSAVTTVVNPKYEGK

Compound | Ki [1] | Dispersibility in Japanese Pharmacopoeia First Solution [2] | Dispersibility in Japanese Pharmacopoeia Second Solution [2]
COC1CN([C@H]2C[C@@H](c3ncc(CCC(=O)O)s3)N(C(=O)Cc3cc(Cl)c(NC(=O)c4coc5ccccc45)cc3F)C2)C1 [Example 67, 3-[2-[1-[4-(3-Benzo[b]furanylcarbonylamino)-5-chloro-2-fluorophenylacetyl]-(4S)-[1-(3-methoxy)azetidinyl]-(2S)-pyrrolidinyl]-5-thiazolyl]propionic acid] | 1.2 nM | 1000 µg/mL | 1000 µg/mL
COC1CN([C@H]2C[C@@H](c3ncc(CCC(=O)O)s3)N(C(=O)Cc3cc(Cl)c(NC(=O)c4coc5ccccc45)cc3Cl)C2)C1 [Example 68, 3-[2-[[1-4-(3-Benzo[b]furanylcarbonylamino)-2,5-dichlorophenylacetyl]-(4S)-[1-(3-methoxy)azetidinyl]-(2S)-pyrrolidinyl]-5-thiazolyl]propionic acid] | 0.73 nM | 1000 µg/mL | 1000 µg/mL
CCOC1CN([C@H]2C[C@@H](c3ncc(CCC(=O)O)s3)N(C(=O)Cc3cc(Cl)c(NC(=O)c4cn(C)c5ccccc45)cc3F)C2)C1 [Example 69, 3-[2-[1-[5-Chloro-2-fluoro-4-(1-methyl-3-indolylcarbonylamino)phenylacetyl]-(4S)-[1-(3-ethoxy)azeditinyl]-(2S)-pyrroldinyl]-5-thiazolyl]propionic acid] | 0.71 nM | 940 µg/mL | 940 µg/mL
CCOC1CN([C@H]2C[C@@H](c3ncc(CCC(=O)O)s3)N(C(=O)Cc3cc(Cl)c(NC(=O)c4cn(C)c5ccccc45)cc3Cl)C2)C1 [Example 70, 3-[2-[1-[2,5-Dichloro-4-(1-methyl-3-indolylcarbonylamino)phenylacetyl]-(4S)-[1-(3-ethoxy)azetidinyl]-(2S)-pyrrolidinyl]-5-thiazolyl]propionic acid] | 2.3 nM | 960 µg/mL | 960 µg/mL
CCOC1CN([C@H]2C[C@@H](c3ncc(CCC(=O)O)s3)N(C(=O)Cc3cc(Cl)c(NC(=O)c4csc5ccccc45)cc3F)C2)C1 [Example 71, 3-[2-[1-[4-(3-Benzo[b]thiophenylcarbonylamino)-5-chloro-2-fluorophenylacetyl]-(4S)-1-(3-ethoxy)azetidinyl-(2S)-pyrrolidinyl]-5-thiazolyl]propionic acid] | 0.5 nM | 940 µg/mL | 940 µg/mL
CCOC1CN([C@H]2C[C@@H](c3ncc(CCC(=O)O)s3)N(C(=O)Cc3cc(Cl)c(NC(=O)c4csc5ccccc45)cc3Cl)C2)C1 [Example 72, 3-[2-[1-[4-(3-Benzo[b]thiophenylcarbonylamino)-2,5-dichlorophenylacetyl]-(4S)-1-(3-ethoxy)azetidinyl-(2S)-pyrrolidinyl]-5-thiazolyl]propionic acid] | 0.68 nM | 960 µg/mL | 960 µg/mL
Cn1cc(C(=O)Nc2cc(F)c(CC(=O)N3C[C@@H](N4CCC(F)(F)CC4)C[C@H]3c3ncc(CCC(=O)O)s3)cc2Cl)c2ccccc21 [Example 73, 3-[2-[1-[5-Chloro-2-fluoro-4-(1-methyl-3-indolylcarbonylamino)phenylacetyl]-(4S)-[1-(4,4-difluoro)piperidinyl]-(2S)-pyrrolidinyl]-5-thiazolyl]propionic acid] | 1.1 nM | 230 µg/mL | 290 µg/mL
Cn1cc(C(=O)Nc2cc(Cl)c(CC(=O)N3C[C@@H](N4CCC(F)(F)CC4)C[C@H]3c3ncc(CCC(=O)O)s3)cc2Cl)c2ccccc21 [Example 74, 3-[2-[1-[2,5-Dichloro-4-(1-methyl-3-indolylcarbonylamino)phenylacetyl]-(4S)-[1-(4,4-difluoro)piperidinyl]-(2S)-pyrrolidinyl]-5-thiazolyl]propionic acid] | 1.2 nM | 130 µg/mL | 150 µg/mL
O=C(O)CCc1cnc([C@@H]2C[C@H](N3CCC(F)(F)CC3)CN2C(=O)Cc2cc(Cl)c(NC(=O)c3csc4ccccc34)cc2F)s1 [Example 75, 3-[2-[1-[4-(3-Benzo[b]thiophenylcarbonylamino)-5-chloro-2-fluorophenylacetyl]-(4S)-[1-(4,4-difluoro)piperidinyl]-(2S)-pyrrolidinyl]-5-thiazolyl]propionic acid] | 0.47 nM | 220 µg/mL | 160 µg/mL
O=C(O)CCc1cnc([C@@H]2C[C@H](N3CCC(F)(F)CC3)CN2C(=O)Cc2cc(Cl)c(NC(=O)c3csc4ccccc34)cc2Cl)s1 [Example 76] | 0.79 nM | 110 µg/mL | 83 µg/mL
O=C(O)CCc1cnc([C@@H]2C[C@H](N3CCC(F)(F)CC3)CN2C(=O)Cc2cc(Cl)c(NC(=O)c3coc4ccccc34)cc2F)s1 [Example 77, 3-[2-[1-[4-(3-Benzo[b]furanylcarbonylamino)-5-chloro-2-fluorophenylacetyl]-(4S)-[1-(4,4-difluoro)piperidinyl]-(2S)-pyrrolidinyl]-5-thiazolyl]propionic acid] | 0.72 nM | 430 µg/mL | 380 µg/mL
O=C(O)CCc1cnc([C@@H]2C[C@H](N3CCC(F)(F)CC3)CN2C(=O)Cc2cc(Cl)c(NC(=O)c3coc4ccccc34)cc2Cl)s1 [Example 78, 3-[2-[1-[4-(3-Benzo[b]furanylcarbonylamino)-2,5-dichlorophenylacetyl]-(4S)-[1-(4,4-difluoro)piperidinyl]-(2S)-pyrrolidinyl]-5-thiazolyl]propionic acid] | 1.2 nM | 260 µg/mL | 230 µg/mL
Cn1cc(C(=O)Nc2cc(F)c(CC(=O)N3C[C@@H](N4CCN(CC(F)(F)F)CC4)C[C@H]3c3ncc(CCC(=O)O)s3)cc2Cl)c2ccccc21 [Example 79, 3-[2-[1-[5-Chloro-2-fluoro-4-(1-methyl-3-indolylcarbonylamino)phenylacetyl]-(4S)-[1-(4-(2,2,2-trifluoro)ethyl)piperazinyl]-(2S)-pyrrolidinyl]-5-thiazolyl]propionic acid] | 1.5 nM | 250 µg/mL | 670 µg/mL
Cn1cc(C(=O)Nc2cc(Cl)c(CC(=O)N3C[C@@H](N4CCN(CC(F)(F)F)CC4)C[C@H]3c3ncc(CCC(=O)O)s3)cc2Cl)c2ccccc21 [Example 80, 3-[2-[1-[2,5-Dichloro-4-(1-methyl-3-indolylcarbonylamino)phenylacetyl]-(4S)-[1-(4-(2,2,2-trifluoro)ethyl)piperazinyl]-(2S)-pyrrolidinyl]-5-thiazolyl]propionic acid] | 2 nM | 110 µg/mL | 730 µg/mL
O=C(O)CCc1cnc([C@@H]2C[C@H](N3CCN(CC(F)(F)F)CC3)CN2C(=O)Cc2cc(Cl)c(NC(=O)c3csc4ccccc34)cc2F)s1 [Example 81, 3-[2-[1-[4-(3-Benzo[b]thiophenylcarbonylamino)-5-chloro-2-fluorophenylacetyl]-(4S)-[1-(4-(2,2,2-trifluoro)ethyl)piperazinyl]-(2S)-pyrrolidinyl]-5-thiazolyl]propionic acid] | 1.3 nM | 210 µg/mL | 680 µg/mL
O=C(O)CCc1cnc([C@@H]2C[C@H](N3CCN(CC(F)(F)F)CC3)CN2C(=O)Cc2cc(Cl)c(NC(=O)c3csc4ccccc34)cc2Cl)s1 [Example 82] | 1.3 nM | 96 µg/mL | 320 µg/mL
O=C(O)CCc1cnc([C@@H]2C[C@H](N3CCN(CC(F)(F)F)CC3)CN2C(=O)Cc2cc(Cl)c(NC(=O)c3coc4ccccc34)cc2F)s1 [Example 83] | 1.6 nM | 540 µg/mL | 1000 µg/mL
O=C(O)CCc1cnc([C@@H]2C[C@H](N3CCN(CC(F)(F)F)CC3)CN2C(=O)Cc2cc(Cl)c(NC(=O)c3coc4ccccc34)cc2Cl)s1 [Example 84] | 1.5 nM | 280 µg/mL | 760 µg/mL
C[C@@H]1CN([C@H]2C[C@@H](c3ncc(CCC(=O)O)s3)N(C(=O)Cc3cc(Cl)c(NC(=O)c4cn(C)c5ccccc45)cc3F)C2)C[C@H](C)O1 [Example 85, 3-[2-[1-[5-Chloro-2-fluoro-4-(1-methyl-3-indolylcarbonylamino)phenylacetyl]-(4S)-[4-(cis-2,6-dimethyl)morpholinyl]-(2S)-pyrrolidinyl]-5-thiazolyl]propionic acid] | 1 nM | 1200 µg/mL | 1300 µg/mL
C[C@@H]1CN([C@H]2C[C@@H](c3ncc(CCC(=O)O)s3)N(C(=O)Cc3cc(Cl)c(NC(=O)c4cn(C)c5ccccc45)cc3Cl)C2)C[C@H](C)O1 [Example 86, 3-[2-[1-[2,5-Dichloro-4-(1-methyl-3-indolylcarbonylamino)phenylacetyl]-(4S)-[4-(cis-2,6-dimethyl)morpholinyl]-(2S)-pyrrolidinyl]-5-thiazolyl]propionic acid] | 1 nM | 1200 µg/mL | 1400 µg/mL
